{"source": "patent US20240382483A1", "about": "“HETEROCYCLIC EGFR INHIBITORS FOR USE IN THE TREATMENT OF CANCER” (Blueprint Medicines Corporation, priority 2021, published 2024)", "key": {"[1]": {"target": "T1, intracellular phosphorylation of EGFR in NCI-H1975 cell line that harbors the EGFR L858R T790M mutations (Homo sapiens, UniProt P00533, L858R/T790M)", "T1 construct": "NCI-H1975 cell line that harbors the EGFR L858R T790M mutations (ATCC, CRL-5908); host or cells: NCI-H1975", "T1 sequence (P00533 25-1210 T790M/L858R)": "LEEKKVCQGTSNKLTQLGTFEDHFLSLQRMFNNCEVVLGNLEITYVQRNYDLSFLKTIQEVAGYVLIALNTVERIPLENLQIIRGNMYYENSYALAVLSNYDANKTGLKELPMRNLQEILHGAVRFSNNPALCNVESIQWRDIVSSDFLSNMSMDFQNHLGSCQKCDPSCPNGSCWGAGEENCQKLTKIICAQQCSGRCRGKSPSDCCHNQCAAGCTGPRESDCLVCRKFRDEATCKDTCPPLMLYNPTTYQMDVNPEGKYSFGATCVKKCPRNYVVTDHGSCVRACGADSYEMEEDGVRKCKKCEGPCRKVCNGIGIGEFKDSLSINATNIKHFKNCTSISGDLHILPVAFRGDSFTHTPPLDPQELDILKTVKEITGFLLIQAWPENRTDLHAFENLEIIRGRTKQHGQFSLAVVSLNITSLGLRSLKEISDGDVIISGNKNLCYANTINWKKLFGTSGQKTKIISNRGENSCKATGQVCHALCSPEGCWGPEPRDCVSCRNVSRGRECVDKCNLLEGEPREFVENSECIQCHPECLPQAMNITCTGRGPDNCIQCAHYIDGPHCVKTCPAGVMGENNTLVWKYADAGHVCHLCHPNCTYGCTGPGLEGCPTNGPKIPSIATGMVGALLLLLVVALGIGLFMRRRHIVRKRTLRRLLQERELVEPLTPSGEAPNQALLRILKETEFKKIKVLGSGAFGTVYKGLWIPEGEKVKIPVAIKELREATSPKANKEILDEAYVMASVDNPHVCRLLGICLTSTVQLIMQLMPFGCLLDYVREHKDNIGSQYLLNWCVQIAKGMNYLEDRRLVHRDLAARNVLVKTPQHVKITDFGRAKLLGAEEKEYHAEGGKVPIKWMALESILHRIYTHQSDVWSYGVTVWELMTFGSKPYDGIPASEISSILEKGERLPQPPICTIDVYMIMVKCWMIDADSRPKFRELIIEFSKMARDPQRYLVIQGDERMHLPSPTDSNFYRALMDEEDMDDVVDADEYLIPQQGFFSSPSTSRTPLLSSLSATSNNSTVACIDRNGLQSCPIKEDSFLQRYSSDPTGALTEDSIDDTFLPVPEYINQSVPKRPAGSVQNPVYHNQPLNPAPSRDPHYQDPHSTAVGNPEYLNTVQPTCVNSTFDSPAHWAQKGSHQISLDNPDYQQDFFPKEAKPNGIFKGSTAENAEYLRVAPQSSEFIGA", "test": "NCI-H1975 pEGFR AlphaLISA assay", "assay_type": "cell-based", "details": "NCI-H1975 cells (EGFR L858R T790M), p-EGFR (Tyr1068), 4-5 hours incubation; read-out: Ext pEGFR H1975 GMean IC50 (nM) Protocol: @Pharmaron AlphaLISA (Num)", "description": "On the next day, the test compounds and DMSO control were added into H1975 cell plate followed by incubation at 37C/5% CO2 for 4-5 hours. […] Then 5 μL of a donor bead mix was added to each well followed by overnight incubation at room temperature in dark. On the next day, the plate was read at a compatible plate reader to obtain pEGFR signal. Percent of pEGFR inhibition was plotted against log concentration of compounds to generate IC50 values."}, "EGFR (L858R T790M C797S)": {"target": "T2, EGFR (L858R T790M C797S) (Homo sapiens, UniProt P00533, C797S/L858R/T790M)", "T2 construct": "purchased SignalChem E10-122VG", "T2 sequence (P00533 25-1210 T790M/C797S/L858R)": "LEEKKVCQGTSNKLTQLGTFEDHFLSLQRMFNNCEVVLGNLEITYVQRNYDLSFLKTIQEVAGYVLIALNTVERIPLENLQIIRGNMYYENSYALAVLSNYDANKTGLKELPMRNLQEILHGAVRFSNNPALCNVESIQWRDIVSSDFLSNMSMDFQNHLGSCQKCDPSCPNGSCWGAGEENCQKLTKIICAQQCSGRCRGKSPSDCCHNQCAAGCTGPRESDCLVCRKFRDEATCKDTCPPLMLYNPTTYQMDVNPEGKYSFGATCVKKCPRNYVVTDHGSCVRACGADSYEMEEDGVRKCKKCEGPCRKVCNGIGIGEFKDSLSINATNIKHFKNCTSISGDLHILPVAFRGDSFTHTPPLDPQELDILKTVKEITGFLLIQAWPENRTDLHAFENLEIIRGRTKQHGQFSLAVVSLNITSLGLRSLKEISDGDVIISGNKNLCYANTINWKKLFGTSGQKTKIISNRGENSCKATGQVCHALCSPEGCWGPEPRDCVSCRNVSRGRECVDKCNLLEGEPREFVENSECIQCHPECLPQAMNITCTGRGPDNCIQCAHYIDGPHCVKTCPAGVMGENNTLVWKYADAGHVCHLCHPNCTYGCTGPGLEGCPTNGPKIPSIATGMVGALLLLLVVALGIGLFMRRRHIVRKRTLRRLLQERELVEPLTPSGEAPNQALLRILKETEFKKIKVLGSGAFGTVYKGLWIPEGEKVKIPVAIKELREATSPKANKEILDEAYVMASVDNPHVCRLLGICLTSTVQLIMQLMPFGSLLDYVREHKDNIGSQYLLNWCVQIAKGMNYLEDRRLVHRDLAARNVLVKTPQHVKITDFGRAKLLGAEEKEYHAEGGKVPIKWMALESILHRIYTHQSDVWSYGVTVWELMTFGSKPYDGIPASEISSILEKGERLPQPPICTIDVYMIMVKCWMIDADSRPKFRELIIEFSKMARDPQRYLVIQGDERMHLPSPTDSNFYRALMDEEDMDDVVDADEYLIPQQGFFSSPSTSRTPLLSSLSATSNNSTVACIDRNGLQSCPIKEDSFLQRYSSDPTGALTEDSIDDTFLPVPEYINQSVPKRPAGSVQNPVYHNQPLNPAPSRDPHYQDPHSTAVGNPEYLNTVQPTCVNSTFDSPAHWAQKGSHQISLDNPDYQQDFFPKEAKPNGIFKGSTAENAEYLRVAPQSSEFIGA", "test": "Biochemical EGFR inhibition assay (Caliper mobility shift), EGFR LRTMCS", "summary_of_the_method": "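Each enzyme was allowed to phosphorylate 10–20% of its peptide at 25° C. before EDTA (35 mM) quench. Separated substrate and product peaks were measured by mobility shift, giving apparent IC50 values.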"}, "[2]": {"details": "LRTMCS (PH) IC50 (nM) @ 1 mM ATP (Num), EGFR LRTMCS mutant"}}, "note": "Where two headings read alike, the source gives them in different places.", "data": [{"smiles": "CO[C@H]1CCN(c2nccc(Nc3cc4c(C(C)C)cnc(N5CCC56CN(C)C6)c4cn3)n2)C[C@@]1(C)F", "note": "(single isomer, unassigned) [Example 43, N-(2-((3R,4S)-3-fluoro-4-methoxy-3-methylpiperidin-1-yl)pyrimidin-4-yl)-5-isopropyl-8-(6-methyl-1,6-diazaspiro[3.3]heptan-1-yl)-2,7-naphthyridin-3-amine or N-(2-((3S,4R)-3-fluoro-4-methoxy-3-methylpiperidin-1-yl)pyrimidin-4-yl)-5-isopropyl-8-(6-methyl-1,6-diazaspiro[3.3]heptan-1-yl)-2,7-naphthyridin-3-amine]", "values": [{"measurement": "IC50", "setting": "[1]", "result": "> 50", "unit": "nM"}, {"measurement": "IC50", "setting": "EGFR (L858R T790M C797S); [2]", "result": "15 to 20", "unit": "nM"}]}, {"smiles": "CC(C)c1cnc(N2CC[C@H]2C)c2cnc(Nc3ccnc(N4CC[C@@H](OCCN(C)C)[C@@H](F)C4)n3)cc12", "note": "[Example 203, N-(2-((3S,4R)-4-(2-(dimethylamino)ethoxy)-3-fluoropiperidin-1-yl)pyrimidin-4-yl)-5-isopropyl-8-((R)-2-methylazetidin-1-yl)-2,7-naphthyridin-3-amine]", "values": [{"measurement": "IC50", "setting": "[1]", "result": "30 to 50", "unit": "nM"}, {"measurement": "IC50", "setting": "EGFR (L858R T790M C797S); [2]", "result": "< 15", "unit": "nM"}]}, {"smiles": "CO[C@@H]1CCN(c2nccc(Nc3cc4c(C(C)C)ccc(N5C[C@H](O)[C@H]5C)c4cn3)n2)C[C@@H]1O", "note": "(single isomer, unassigned) [Example 123, (3S,4R)-1-(4-((8-((2R,3S)-3-hydroxy-2-methylazetidin-1-yl)-5-isopropylisoquinolin-3-yl)amino)pyrimidin-2-yl)-4-methoxypiperidin-3-ol-ol or (3R,4S)-1-(4-((8-((2R,3S)-3-hydroxy-2-methylazetidin-1-yl)-5-isopropylisoquinolin-3-yl)amino)pyrimidin-2-yl)-4-methoxypiperidin-3-ol]", "values": [{"measurement": "IC50", "setting": "[1]", "result": "> 50", "unit": "nM"}, {"measurement": "IC50", "setting": "EGFR (L858R T790M C797S); [2]", "result": "15 to 20", "unit": "nM"}]}, {"smiles": "C[C@H](CC#N)c1cnc(N2CC[C@H]2C)c2cnc(Nc3ccnc(N4CC[C@@H](O)[C@@](C)(F)C4)n3)cc12", "note": "(single isomer, unassigned) [Example 37, (R)-3-(6-((2-((3S,4R)-3-fluoro-4-hydroxy-3-methylpiperidin-1-yl)pyrimidin-4-yl)amino)-1-((R)-2-methylazetidin-1-yl)-2,7-naphthyridin-4-yl)butanenitrile or (S)-3-(6-((2-((3S,4R)-3-fluoro-4-hydroxy-3-methylpiperidin-1-yl)pyrimidin-4-yl)amino)-1-((R)-2-methylazetidin-1-yl)-2,7-naphthyridin-4-yl)butanenitrile]", "values": [{"measurement": "IC50", "setting": "[1]", "result": "10 to 20", "unit": "nM"}, {"measurement": "IC50", "setting": "EGFR (L858R T790M C797S); read-out: LRTMCS (PH) IC50 (nM) @ 1 mM ATP (Num), EGFR LRTMCS mutant", "result": "< 15", "unit": "nM"}]}, {"smiles": "COC(=O)N1CC2(CCN2c2ncc(C(C)C)c3cc(Nc4ccnc(N5CC[C@@H](O)[C@@](C)(F)C5)n4)ncc23)C1", "note": "[Example 82, methyl 1-(6-((2-((3S,4R)-3-fluoro-4-hydroxy-3-methylpiperidin-1-yl)pyrimidin-4-yl)amino)-4-isopropyl-2,7-naphthyridin-1-yl)-1,6-diazaspiro[3.3]heptane-6-carboxylate]", "values": [{"measurement": "IC50", "setting": "[1]", "result": "30 to 50", "unit": "nM"}, {"measurement": "IC50", "setting": "EGFR (L858R T790M C797S); [2]", "result": "15 to 20", "unit": "nM"}]}, {"smiles": "CC(C)c1cnc(N2CCC23CN(C)C3)c2cnc(Nc3ccnc(N4CC[C@@]5(CCO5)C(F)(F)C4)n3)cc12", "note": "(single isomer, unassigned) [Example 194, (R)—N-(2-(5,5-difluoro-1-oxa-7-azaspiro[3.5]nonan-7-yl)pyrimidin-4-yl)-5-isopropyl-8-(6-methyl-1,6-diazaspiro[3.3]heptan-1-yl)-2,7-naphthyridin-3-amine or (S)—N-(2-(5,5-difluoro-1-oxa-7-azaspiro[3.5]nonan-7-yl)pyrimidin-4-yl)-5-isopropyl-8-(6-methyl-1,6-diazaspiro[3.3]heptan-1-yl)-2,7-naphthyridin-3-amine]", "values": [{"measurement": "IC50", "setting": "[1]", "result": "> 50", "unit": "nM"}, {"measurement": "IC50", "setting": "EGFR (L858R T790M C797S); [2]", "result": "< 15", "unit": "nM"}]}, {"smiles": "C[C@H](c1cnc(N2CC[C@H]2C)c2cnc(Nc3ccnc(N4CC[C@@H](O)[C@@](C)(F)C4)n3)cc12)C1COC1", "note": "(single isomer, unassigned) [Example 176, (3S,4R)-3-fluoro-3-methyl-1-(4-((8-((R)-2-methylazetidin-1-yl)-5-((S)-1-(oxetan-3-yl)ethyl)-2,7-naphthyridin-3-yl)amino)pyrimidin-2-yl)piperidin-4-ol or (3S,4R)-3-fluoro-3-methyl-1-(4-((8-((R)-2-methylazetidin-1-yl)-5-((R)-1-(oxetan-3-yl)ethyl)-2,7-naphthyridin-3-yl)amino)pyrimidin-2-yl)piperidin-4-ol]", "values": [{"measurement": "IC50", "setting": "[1]", "result": "20 to 30", "unit": "nM"}, {"measurement": "IC50", "setting": "EGFR (L858R T790M C797S); [2]", "result": "< 15", "unit": "nM"}]}, {"smiles": "C[C@@H]1CCN1c1ncc([C@@H](C)OCC2COC2)c2cc(Nc3ccnc(N4CC[C@@H](O)[C@@](C)(F)C4)n3)ncc12", "note": "(single isomer, unassigned) [Example 183, (3S,4R)-3-fluoro-3-methyl-1-(4-((8-((R)-2-methylazetidin-1-yl)-5-((R)-1-(oxetan-3-ylmethoxy)ethyl)-2,7-naphthyridin-3-yl)amino)pyrimidin-2-yl)piperidin-4-ol or (3S,4R)-3-fluoro-3-methyl-1-(4-((8-((R)-2-methylazetidin-1-yl)-5-((S)-1-(oxetan-3-ylmethoxy)ethyl)-2,7-naphthyridin-3-yl)amino)pyrimidin-2-yl)piperidin-4-ol]", "values": [{"measurement": "IC50", "setting": "[1]", "result": "> 50", "unit": "nM"}, {"measurement": "IC50", "setting": "EGFR (L858R T790M C797S); [2]", "result": "30 to 100", "unit": "nM"}]}, {"smiles": "CC(C)c1cnc(N2CC[C@H]2C)c2cnc(Nc3ccnc(N4CC[C@@H](OCCO)[C@@H](F)C4)n3)cc12", "note": "[Example 142, 2-(((3S,4R)-3-fluoro-1-(4-((5-isopropyl-8-((R)-2-methylazetidin-1-yl)-2,7-naphthyridin-3-yl)amino)pyrimidin-2-yl)piperidin-4-yl)oxy)ethan-1-ol]", "values": [{"measurement": "IC50", "setting": "[1]", "result": "< 10", "unit": "nM"}, {"measurement": "IC50", "setting": "EGFR (L858R T790M C797S); [2]", "result": "< 15", "unit": "nM"}]}, {"smiles": "CC(C)c1cnc(N2C[C@H](O)[C@H]2C)c2cnc(Nc3ccnc(N4CC[C@H](O)[C@H](F)C4)n3)cc12", "note": "[Example 143, (3R,4S)-3-fluoro-1-(4-((8-((2R,3S)-3-hydroxy-2-methylazetidin-1-yl)-5-isopropyl-2,7-naphthyridin-3-yl)amino)pyrimidin-2-yl)piperidin-4-ol]", "values": [{"measurement": "IC50", "setting": "[1]", "result": "10 to 20", "unit": "nM"}, {"measurement": "IC50", "setting": "EGFR (L858R T790M C797S); [2]", "result": "< 15", "unit": "nM"}]}, {"smiles": "CO[C@H]1CN(c2ncc(C(C)C)c3cc(Nc4ccnc(N5CC[C@@H](O)[C@@](C)(F)C5)n4)ncc23)[C@@H]1C", "note": "[Example 107, (3S,4R)-3-fluoro-1-(4-((5-isopropyl-8-((2R,3S)-3-methoxy-2-methylazetidin-1-yl)-2,7-naphthyridin-3-yl)amino)pyrimidin-2-yl)-3-methylpiperidin-4-ol]", "values": [{"measurement": "IC50", "setting": "[1]", "result": "< 10", "unit": "nM"}, {"measurement": "IC50", "setting": "EGFR (L858R T790M C797S); [2]", "result": "< 15", "unit": "nM"}]}, {"smiles": "C[C@@H]1CCN1c1ncc([C@@H](C)C(=O)N(C)C)c2cc(Nc3ccnc(N4CC[C@@H](O)[C@@](C)(F)C4)n3)ncc12", "note": "(single isomer, unassigned) [Example 185, (R)-2-(6-((2-((3S,4R)-3-fluoro-4-hydroxy-3-methylpiperidin-1-yl)pyrimidin-4-yl)amino)-1-((R)-2-methylazetidin-1-yl)-2,7-naphthyridin-4-yl)-N,N-dimethylpropanamide or (S)-2-(6-((2-((3S,4R)-3-fluoro-4-hydroxy-3-methylpiperidin-1-yl)pyrimidin-4-yl)amino)-1-((R)-2-methylazetidin-1-yl)-2,7-naphthyridin-4-yl)-N,N-dimethylpropanamide]", "values": [{"measurement": "IC50", "setting": "[1]", "result": "> 50", "unit": "nM"}, {"measurement": "IC50", "setting": "EGFR (L858R T790M C797S); [2]", "result": "20 to 30", "unit": "nM"}]}, {"smiles": "CC(C)c1cnc(N2CC[C@]3(C2)CC3(F)F)c2cnc(Nc3ccnc(N4CC[C@@H](O)[C@@](C)(F)C4)n3)cc12", "note": "(single isomer, unassigned) [Example 214, (3S,4R)-1-(4-((8-((R)-1,1-difluoro-5-azaspiro[2.4]heptan-5-yl)-5-isopropyl-2,7-naphthyridin-3-yl)amino)pyrimidin-2-yl)-3-fluoro-3-methylpiperidin-4-ol or (3S,4R)-1-(4-((8-((S)-1,1-difluoro-5-azaspiro[2.4]heptan-5-yl)-5-isopropyl-2,7-naphthyridin-3-yl)amino)pyrimidin-2-yl)-3-fluoro-3-methylpiperidin-4-ol]", "values": [{"measurement": "IC50", "setting": "[1]", "result": "30 to 50", "unit": "nM"}, {"measurement": "IC50", "setting": "EGFR (L858R T790M C797S); [2]", "result": "30 to 100", "unit": "nM"}]}, {"smiles": "CC(C)c1cnc(N2CC(C(F)F)C2)c2cnc(Nc3ccnc(N4CC[C@@H](O)[C@@](C)(F)C4)n3)cc12", "note": "[Example 55, (3S,4R)-1-(4-((8-(3-(difluoromethyl)azetidin-1-yl)-5-isopropyl-2,7-naphthyridin-3-yl)amino)pyrimidin-2-yl)-3-fluoro-3-methylpiperidin-4-ol]", "values": [{"measurement": "IC50", "setting": "[1]", "result": "10 to 20", "unit": "nM"}, {"measurement": "IC50", "setting": "EGFR (L858R T790M C797S); [2]", "result": "< 15", "unit": "nM"}]}, {"smiles": "Cc1nnc(-c2cnc(C(C)C)c3cc(Nc4ccnc(N5CC[C@@H](O)[C@@](C)(F)C5)n4)ncc23)o1", "note": "[Example 7, (3S,4R)-3-fluoro-1-(4-((5-isopropyl-8-(5-methyl-1,3,4-oxadiazol-2-yl)-2,6-naphthyridin-3-yl)amino)pyrimidin-2-yl)-3-methylpiperidin-4-ol]", "values": [{"measurement": "IC50", "setting": "[1]", "result": "> 50", "unit": "nM"}, {"measurement": "IC50", "setting": "EGFR (L858R T790M C797S); [2]", "result": "15 to 20", "unit": "nM"}]}, {"smiles": "CO[C@@H]1CCN(c2cc(Nc3cc4c(C(C)C)ccc(N5CC(n6ccnn6)C5)c4cn3)ccn2)C[C@@H]1O", "note": "(single isomer, unassigned) [Example 126, (3S,4R)-1-(4-((8-(3-(1H-1,2,3-triazol-1-yl)azetidin-1-yl)-5-isopropylisoquinolin-3-yl)amino)pyridin-2-yl)-4-methoxypiperidin-3-ol or (3R,4S)-1-(4-((8-(3-(1H-1,2,3-triazol-1-yl)azetidin-1-yl)-5-isopropylisoquinolin-3-yl)amino)pyridin-2-yl)-4-methoxypiperidin-3-ol]", "values": [{"measurement": "IC50", "setting": "[1]", "result": "10 to 20", "unit": "nM"}, {"measurement": "IC50", "setting": "EGFR (L858R T790M C797S); [2]", "result": "< 15", "unit": "nM"}]}]}
